# Reference: article PMC4184702 (Pharmacology Research & Perspectives, 2014)
# pKi: −log10 of the molar value. “Also recorded” adds a separate entry of the source.
# Experiments:
# β2 adrenergic receptor = molecular target: T1, β2 adrenergic receptor (Homo sapiens, UniProt P07550); experiment: PDSP primary binding, β2; details: n = 4, read-out: Inhibition (primary binding competition efficacy), β2
# T1 construct: purchased NIMH Psychoactive Drug Screening Program (PDSP)
# Procedure: (§1) For experimental details, please refer to the Psychoactive Drug Screening Program (PDSP) web site http://pdsp.med.unc.edu/.
# (§2) ^a The default concentration for primary binding experiments is 10 µM (n = 4). ^b Negative inhibition represents a stimulation of binding. ^c BZPR: Benzodiazepine Receptors (rat brain site). ^d DOR: Delta Opioid Receptor; KOR: Kappa Opioid Receptor; MOR: Mu Opioid Receptor. ^e DAT: Dopamine Transporter; NET: Norepinephrine Transporter; SERT: Serotonin Transporter. ^f NMDA: N-methyl-D-aspartate receptor.
# [1] = molecular target: T2, DOR: Delta Opioid Receptor (Homo sapiens, UniProt P41143); experiment: PDSP primary binding, DOR; details: n = 4, read-out: Inhibition (primary binding competition efficacy), DOR
# T2 construct: purchased NIMH Psychoactive Drug Screening Program (PDSP)
# T2 sequence (P41143 whole entry): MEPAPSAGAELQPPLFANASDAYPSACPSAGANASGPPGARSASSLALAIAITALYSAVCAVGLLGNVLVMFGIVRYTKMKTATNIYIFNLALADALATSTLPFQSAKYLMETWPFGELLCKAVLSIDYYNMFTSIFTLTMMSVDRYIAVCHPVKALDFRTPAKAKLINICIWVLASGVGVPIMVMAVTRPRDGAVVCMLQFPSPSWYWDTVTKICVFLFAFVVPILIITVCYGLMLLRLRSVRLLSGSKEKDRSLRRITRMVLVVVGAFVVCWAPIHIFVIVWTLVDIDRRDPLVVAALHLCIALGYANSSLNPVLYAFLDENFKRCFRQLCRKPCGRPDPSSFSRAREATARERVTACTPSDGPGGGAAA
# Procedure: as §1, §2
# α7* nAChR = details: ref Yu et al. [2012], cited from earlier work
# α1A adrenergic receptor = molecular target: T3, α1A adrenergic receptor (Homo sapiens, UniProt P35348); experiment: PDSP primary binding, α1A; details: n = 4, read-out: Inhibition (primary binding competition efficacy), α1A
# T3 construct: purchased NIMH Psychoactive Drug Screening Program (PDSP)
# Procedure: as §1, §2
# D1 dopamine receptor = molecular target: T4, D1 dopamine receptor (Homo sapiens, UniProt P21728); experiment: PDSP primary binding, D1; details: n = 4, read-out: Inhibition (primary binding competition efficacy), D1
# T4 construct: purchased NIMH Psychoactive Drug Screening Program (PDSP)
# Procedure: as §1, §2
# CYP2C9 = molecular target: T5, CYP2C9 (Homo sapiens, UniProt P11712); experiment: CYP2C9 inhibition, HLM, diclofenac substrate; format: in vitro ADME; details: 1.0E-05 M
# T5 construct: from tissue; host or cells: human liver microsomes (HLM)
# T5 sequence (P11712 whole entry): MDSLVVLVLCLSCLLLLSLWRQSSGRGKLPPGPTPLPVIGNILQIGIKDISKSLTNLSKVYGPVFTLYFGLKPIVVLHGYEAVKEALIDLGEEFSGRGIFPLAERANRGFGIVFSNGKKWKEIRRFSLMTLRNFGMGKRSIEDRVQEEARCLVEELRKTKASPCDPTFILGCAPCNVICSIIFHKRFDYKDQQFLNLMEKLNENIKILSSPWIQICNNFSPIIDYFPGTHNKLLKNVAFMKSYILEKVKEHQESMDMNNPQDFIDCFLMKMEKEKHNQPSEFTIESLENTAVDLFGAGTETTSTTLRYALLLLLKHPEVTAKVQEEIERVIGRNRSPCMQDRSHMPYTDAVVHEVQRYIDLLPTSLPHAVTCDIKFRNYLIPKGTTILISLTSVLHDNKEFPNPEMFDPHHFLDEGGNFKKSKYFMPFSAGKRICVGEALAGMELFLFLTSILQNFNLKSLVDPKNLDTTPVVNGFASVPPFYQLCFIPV
# Description: Supplement prp20002-e00026-sd1.doc, table 3: Table 3.
# [2] = test system: 51 other CNS neurotransmitter receptors and transporters; experiment: Broad-range screening (PDSP), summary; format: binding; details: 10 μmol/L
# Procedure: as §1, §2
# σ 2 sigma receptor = experiment: PDSP primary binding, σ 2; details: 10 µM, n = 4
# Procedure: as §1, §2
# M1 muscarinic receptor = molecular target: T6, M1 muscarinic receptor (Homo sapiens, UniProt P11229); experiment: PDSP primary binding, M1; details: n = 4, read-out: Inhibition (primary binding competition efficacy), M1
# T6 construct: purchased NIMH Psychoactive Drug Screening Program (PDSP)
# T6 sequence (P11229 whole entry): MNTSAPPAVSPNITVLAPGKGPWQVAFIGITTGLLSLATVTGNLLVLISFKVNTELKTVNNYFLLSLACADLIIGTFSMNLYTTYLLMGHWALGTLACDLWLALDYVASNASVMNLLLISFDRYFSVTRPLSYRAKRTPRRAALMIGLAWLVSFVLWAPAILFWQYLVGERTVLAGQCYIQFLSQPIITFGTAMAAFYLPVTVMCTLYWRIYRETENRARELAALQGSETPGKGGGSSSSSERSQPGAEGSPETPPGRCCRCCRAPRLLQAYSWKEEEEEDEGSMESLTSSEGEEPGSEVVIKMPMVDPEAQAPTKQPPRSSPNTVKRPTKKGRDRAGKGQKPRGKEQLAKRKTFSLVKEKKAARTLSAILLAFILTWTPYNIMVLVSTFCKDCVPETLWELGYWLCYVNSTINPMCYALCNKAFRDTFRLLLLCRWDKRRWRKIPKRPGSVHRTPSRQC
# Procedure: as §1, §2
# CB2 = molecular target: T7, CB2 (Homo sapiens, UniProt P34972); experiment: PDSP primary binding, CB2; details: n = 4, read-out: Inhibition (primary binding competition efficacy), CB2
# T7 construct: purchased NIMH Psychoactive Drug Screening Program (PDSP)
# Procedure: as §1, §2
# α2B adrenergic receptor = molecular target: T8, α2B adrenergic receptor (Homo sapiens, UniProt P18089); experiment: PDSP primary binding, α2B; details: n = 4, read-out: Inhibition (primary binding competition efficacy), α2B
# T8 construct: purchased NIMH Psychoactive Drug Screening Program (PDSP)
# T8 sequence (P18089 whole entry): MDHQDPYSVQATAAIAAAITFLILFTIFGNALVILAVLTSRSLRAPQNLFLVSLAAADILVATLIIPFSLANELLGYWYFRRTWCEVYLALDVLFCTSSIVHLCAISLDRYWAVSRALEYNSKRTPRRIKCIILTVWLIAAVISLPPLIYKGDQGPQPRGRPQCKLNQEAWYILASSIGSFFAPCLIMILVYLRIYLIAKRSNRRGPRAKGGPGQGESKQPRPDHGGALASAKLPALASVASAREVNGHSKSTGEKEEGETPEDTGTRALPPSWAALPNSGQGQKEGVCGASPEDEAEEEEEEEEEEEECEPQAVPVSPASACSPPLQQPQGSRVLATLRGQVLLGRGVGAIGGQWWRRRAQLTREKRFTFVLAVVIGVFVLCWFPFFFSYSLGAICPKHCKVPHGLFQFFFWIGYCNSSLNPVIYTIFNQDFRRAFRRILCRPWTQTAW
# Procedure: as §1, §2
# Balb/CJ mice = experiment: Acute toxicity / mortality in Balb/C mice; details: 300 mg/kg, wild-type Balb/CJ mice
# 5-HT4 = molecular target: T9, 5-HT4 (Homo sapiens, UniProt Q13639); experiment: PDSP primary binding, 5-HT4; details: n = 4, read-out: Inhibition (primary binding competition efficacy), 5-HT4
# T9 construct: purchased NIMH Psychoactive Drug Screening Program (PDSP)
# T9 sequence (Q13639 whole entry): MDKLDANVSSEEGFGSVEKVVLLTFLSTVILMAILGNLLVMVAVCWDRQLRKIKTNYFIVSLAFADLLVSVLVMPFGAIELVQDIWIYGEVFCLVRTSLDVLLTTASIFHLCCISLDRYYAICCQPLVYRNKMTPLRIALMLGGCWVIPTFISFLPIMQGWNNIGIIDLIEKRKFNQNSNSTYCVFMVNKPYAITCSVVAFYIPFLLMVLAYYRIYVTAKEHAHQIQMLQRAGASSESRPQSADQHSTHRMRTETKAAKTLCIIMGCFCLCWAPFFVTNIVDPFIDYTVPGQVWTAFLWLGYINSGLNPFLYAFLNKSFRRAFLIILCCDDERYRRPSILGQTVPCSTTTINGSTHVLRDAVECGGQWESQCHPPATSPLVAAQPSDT
# Procedure: as §1, §2
# M4 muscarinic receptor = molecular target: T10, M4 muscarinic receptor (Homo sapiens, UniProt P08173); experiment: PDSP primary binding, M4; details: n = 4, read-out: Inhibition (primary binding competition efficacy), M4
# T10 construct: purchased NIMH Psychoactive Drug Screening Program (PDSP)
# Procedure: as §1, §2
# Male Balb/CJ mice = experiment: Forced swim test; format: in vivo, mouse
# Description: Male Balb/CJ mice (Jackson Laboratories, Bar Harbor, ME) were used in the forced swim test (FST). Upon receipt, mice were assigned unique identification numbers (tail marked) and were group-housed in OptiMICE ventilated cages. Mice were acclimated to the colony room for at least 1 week prior to drug administration. Mice were 8–10 weeks of age at time of FST.
# Procedures have been previously described (Porsolt et al. [1977]). Naïve mice were individually placed into clear glass cylinders (15 cm tall × 10 cm wide, 1 L beakers) containing 23 ± 1°C water 12 cm deep (∼800 mL). […] Thirty minutes following the administration, mice were placed in the water, and the time the animal spent immobile was recorded over a 6-min trial. Immobility was defined as the postural position of floating in the water. Only one session is required for the forced swim test in mice.
# [3] = Metabolic stability, liver microsomes, mouse; format: in vitro ADME; details: CD-1, 1.0E-06 M, 1 h
# [4] = Bacterial cytotoxicity, strain TA1535; format: cell-based; details: Salmonella typhimurium, bacterial tester strain TA1535 without S9, read-out: Cytotoxicity (% of Control Values)
# Description: Supplement prp20002-e00026-sd1.doc, table 4: Table 4.
# β1 adrenergic receptor = molecular target: T11, β1 adrenergic receptor (Homo sapiens, UniProt P08588); experiment: PDSP primary binding, β1; details: n = 4, read-out: Inhibition (primary binding competition efficacy), β1
# T11 construct: purchased NIMH Psychoactive Drug Screening Program (PDSP)
# T11 sequence (P08588 whole entry): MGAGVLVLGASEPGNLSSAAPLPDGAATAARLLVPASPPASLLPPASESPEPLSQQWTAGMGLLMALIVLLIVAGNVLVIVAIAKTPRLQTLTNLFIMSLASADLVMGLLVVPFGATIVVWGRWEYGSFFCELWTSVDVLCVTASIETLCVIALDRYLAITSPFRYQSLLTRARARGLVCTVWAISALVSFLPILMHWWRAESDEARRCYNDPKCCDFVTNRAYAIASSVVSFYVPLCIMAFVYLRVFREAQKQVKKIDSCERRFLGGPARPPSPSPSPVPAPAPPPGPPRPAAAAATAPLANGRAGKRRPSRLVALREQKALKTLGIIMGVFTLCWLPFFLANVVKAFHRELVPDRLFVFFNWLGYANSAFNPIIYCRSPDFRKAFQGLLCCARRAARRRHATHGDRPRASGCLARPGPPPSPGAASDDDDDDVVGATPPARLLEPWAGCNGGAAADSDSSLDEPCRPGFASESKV
# Procedure: as §1, §2
# strain TA1535 = experiment: Ames test, strain TA1535; format: cell-based
# D3 dopamine receptor = molecular target: T12, D3 dopamine receptor (Homo sapiens, UniProt P35462); experiment: PDSP primary binding, D3; details: n = 4, read-out: Inhibition (primary binding competition efficacy), D3
# T12 construct: purchased NIMH Psychoactive Drug Screening Program (PDSP)
# Procedure: as §1, §2
# [5] = molecular target: T13, DAT: Dopamine Transporter (Homo sapiens, UniProt Q01959); experiment: PDSP primary binding, DAT; details: n = 4, read-out: Inhibition (primary binding competition efficacy), DAT
# T13 construct: purchased NIMH Psychoactive Drug Screening Program (PDSP)
# T13 sequence (Q01959 whole entry): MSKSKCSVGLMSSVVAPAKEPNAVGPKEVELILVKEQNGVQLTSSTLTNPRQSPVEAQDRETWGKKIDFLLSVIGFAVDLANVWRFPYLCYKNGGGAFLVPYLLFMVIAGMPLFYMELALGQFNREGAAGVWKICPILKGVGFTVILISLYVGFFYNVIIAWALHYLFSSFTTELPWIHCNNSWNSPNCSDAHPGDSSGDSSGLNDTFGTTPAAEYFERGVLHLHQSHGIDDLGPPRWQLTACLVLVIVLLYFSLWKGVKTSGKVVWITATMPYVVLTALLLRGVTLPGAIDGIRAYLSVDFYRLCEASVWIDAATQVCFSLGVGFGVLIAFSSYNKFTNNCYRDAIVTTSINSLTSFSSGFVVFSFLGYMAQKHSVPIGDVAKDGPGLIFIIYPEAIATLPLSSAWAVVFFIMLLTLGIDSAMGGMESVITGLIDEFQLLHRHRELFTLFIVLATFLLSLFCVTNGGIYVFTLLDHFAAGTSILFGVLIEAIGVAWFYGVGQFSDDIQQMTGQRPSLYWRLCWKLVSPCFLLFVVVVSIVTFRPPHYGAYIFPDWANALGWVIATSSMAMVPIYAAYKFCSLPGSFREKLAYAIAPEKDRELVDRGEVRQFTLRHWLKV
# Procedure: as §1, §2
# [6] = design: method as in Yuan et al. [2013]; details: ref Yuan et al. [2013]; cited from earlier work
# D5 dopamine receptor = molecular target: T14, D5 dopamine receptor (Homo sapiens, UniProt P21918); experiment: PDSP primary binding, D5; details: n = 4, read-out: Inhibition (primary binding competition efficacy), D5
# T14 construct: purchased NIMH Psychoactive Drug Screening Program (PDSP)
# T14 sequence (P21918 whole entry): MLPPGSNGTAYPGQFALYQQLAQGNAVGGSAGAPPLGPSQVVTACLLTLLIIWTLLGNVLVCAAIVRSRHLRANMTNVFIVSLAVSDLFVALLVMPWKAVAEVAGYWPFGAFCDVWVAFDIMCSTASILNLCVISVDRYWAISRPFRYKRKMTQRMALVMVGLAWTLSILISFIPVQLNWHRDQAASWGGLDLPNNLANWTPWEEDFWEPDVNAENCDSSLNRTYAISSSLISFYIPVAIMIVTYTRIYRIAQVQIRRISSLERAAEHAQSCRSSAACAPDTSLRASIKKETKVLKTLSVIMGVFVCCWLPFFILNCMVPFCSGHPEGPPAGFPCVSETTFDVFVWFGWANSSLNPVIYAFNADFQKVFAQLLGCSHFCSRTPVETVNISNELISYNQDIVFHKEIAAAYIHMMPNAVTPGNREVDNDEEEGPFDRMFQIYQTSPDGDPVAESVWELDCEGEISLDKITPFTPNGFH
# Procedure: as §1, §2
# [7] = molecular target: T15, SERT: Serotonin Transporter (Homo sapiens, UniProt P31645); experiment: PDSP primary binding, SERT; details: n = 4, read-out: Inhibition (primary binding competition efficacy), SERT
# T15 construct: purchased NIMH Psychoactive Drug Screening Program (PDSP)
# T15 sequence (P31645 whole entry): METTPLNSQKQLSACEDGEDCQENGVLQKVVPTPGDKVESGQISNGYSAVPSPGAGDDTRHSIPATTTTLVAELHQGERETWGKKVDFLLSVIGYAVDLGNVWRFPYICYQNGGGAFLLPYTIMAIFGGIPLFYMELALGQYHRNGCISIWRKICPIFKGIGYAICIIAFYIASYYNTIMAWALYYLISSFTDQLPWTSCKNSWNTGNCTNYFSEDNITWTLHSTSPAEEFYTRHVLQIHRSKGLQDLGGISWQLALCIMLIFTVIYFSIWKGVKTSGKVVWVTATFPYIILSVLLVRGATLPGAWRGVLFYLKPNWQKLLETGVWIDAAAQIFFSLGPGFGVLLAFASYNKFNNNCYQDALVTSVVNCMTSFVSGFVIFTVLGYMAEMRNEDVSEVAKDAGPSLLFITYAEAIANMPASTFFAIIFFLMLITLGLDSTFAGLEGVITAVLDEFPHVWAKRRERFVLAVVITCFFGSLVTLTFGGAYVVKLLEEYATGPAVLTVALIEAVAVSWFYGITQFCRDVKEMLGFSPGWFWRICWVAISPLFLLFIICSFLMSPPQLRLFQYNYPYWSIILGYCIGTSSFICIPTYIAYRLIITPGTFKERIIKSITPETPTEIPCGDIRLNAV
# Procedure: as §1, §2
# T1 sequence (P07550 whole entry): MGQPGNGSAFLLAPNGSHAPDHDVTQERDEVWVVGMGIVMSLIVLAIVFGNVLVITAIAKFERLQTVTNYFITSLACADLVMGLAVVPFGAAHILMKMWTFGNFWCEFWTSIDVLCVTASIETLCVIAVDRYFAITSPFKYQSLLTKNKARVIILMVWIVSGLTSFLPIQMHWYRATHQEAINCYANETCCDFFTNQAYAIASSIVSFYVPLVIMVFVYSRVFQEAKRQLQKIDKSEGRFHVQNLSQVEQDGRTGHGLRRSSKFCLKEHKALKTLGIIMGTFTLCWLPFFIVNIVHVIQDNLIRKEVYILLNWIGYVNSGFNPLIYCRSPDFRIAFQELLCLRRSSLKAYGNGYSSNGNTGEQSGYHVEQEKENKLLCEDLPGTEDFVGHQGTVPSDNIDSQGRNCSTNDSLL
smiles,measurement,setting,value
"OCCc1cc(-c2cncc(OC[C@@H]3CCN3)c2)on1 [LF-3-88, 2-[5-[5-(2(S)-azetidinylmethoxyl)-3-pyridyl]-3-isoxazolyl]ethanol]",inhibition at 10 µM,β2 adrenergic receptor,6.8%
same,inhibition at 10 µM,[1],5.9%
same,pKi,α7* nAChR; Figure 1,< 5.00
same,Ki α7*,"α7* nAChR; rat forebrain, class symbol","NA (NA: not active, defined as < 50% binding in the primary assay at 10 μmol/L)"
same,inhibition at 10 µM,α1A adrenergic receptor,-5.5%
same,inhibition at 10 µM,D1 dopamine receptor,5.8%
same,CYP2C9 Inhibition,CYP2C9,4%
same,inhibition across 51 other CNS neurotransmitter receptors and transporters,[2],≤ 50%
same,"Inhibition (primary binding competition efficacy), σ 2",σ 2 sigma receptor,11.5%
same,inhibition at 10 µM,M1 muscarinic receptor,8.8%
same,inhibition at 10 µM,CB2,-7.3%
same,inhibition at 10 µM,α2B adrenergic receptor,-17.7%
same,mortality,Balb/CJ mice,no mortality
same,inhibition at 10 µM,5-HT4,3.7%
same,inhibition at 10 µM,M4 muscarinic receptor,-3.6%
same,immobility in forced swim test,"Male Balb/CJ mice; 1, 3, and 10 mg/kg, p.o.",decreased immobility; also recorded: reduce the immobility dose-dependently
same,immobility in forced swim test,"Male Balb/CJ mice; 1 and 3 mg/kg, i.p., 30 min pretreatment, 6-min trial, vs water",decreased immobility; also recorded: dose-dependently reduced immobility
same,minimum effective dose in forced swim test,Male Balb/CJ mice; i.p.,1 mg/kg
same,Remaining (metabolic stability),[3],81%
same,viability at 0.0001 M,"[4]; strain TA1535 – S9, 1.0E-04 M",117%
same,viability at 10 µM,"[4]; strain TA1535 – S9, 1.0E-05 M",97%
same,viability at 1.25 µM,"[4]; strain TA1535 – S9, 1.25E-06 M",105%
same,viability at 25 µM,"[4]; strain TA1535 – S9, 2.5E-05 M",104%
same,viability at 2.5 µM,"[4]; strain TA1535 – S9, 2.5E-06 M",102%
same,viability at 50 µM,"[4]; strain TA1535 – S9, 5.0E-05 M",109%
same,viability at 5 µM,"[4]; strain TA1535 – S9, 5.0E-06 M",100%
same,viability at 625 nM,"[4]; strain TA1535 – S9, 6.25E-07 M",99%
same,inhibition at 10 µM,β1 adrenergic receptor,1.7%
same,Ames test Result,"strain TA1535; strain TA1535 + S9, 1.0E-04 M",Negative
same,Ames test Result,"strain TA1535; strain TA1535 + S9, 1.0E-05 M",Negative
same,Ames test Result,"strain TA1535; strain TA1535 + S9, 5.0E-05 M",Negative
same,Ames test Result,"strain TA1535; strain TA1535 + S9, 5.0E-06 M",Negative
same,Ames test Result,"strain TA1535; strain TA1535 – S9, 1.0E-04 M",Negative
same,Ames test Result,"strain TA1535; strain TA1535 – S9, 1.0E-05 M",Negative
same,Ames test Result,"strain TA1535; strain TA1535 – S9, 5.0E-05 M",Negative
same,Ames test Result,"strain TA1535; strain TA1535 – S9, 5.0E-06 M",Negative
same,"mutagenic potential (Ames), TA1535","strain TA1535; with or without S9, 5, 10, 50, or 100 μmol/L",negative
same,inhibition at 10 µM,D3 dopamine receptor,3%
same,inhibition at 10 µM,[5],18.6%
same,absorption and blood-brain barrier crossing in vivo,[6],absorbed rapidly and crossed the blood–brain barrier
same,inhibition at 10 µM,D5 dopamine receptor,5.8%
same,inhibition at 10 µM,[7],-0.2%
